Test results as given in EP0347459A1, “CEPHALOSPORIN COMPOUNDS OR THEIR SALTS, PROCESS FOR THEIR PREPARATION, AND PHARMACEUTICAL COMPOSITIONS” (TEIJIN LIMITED, priority 1987, dated 1988).
≈ marks a conversion by molar mass, not a printed value.

Columns and labels:
Type in all cases: cell-based
[1] = system: P.aeruginosa ATCC27577; assay: MIC values of 10 kinds of Pseudomonas aeruginosa; details: 16 h, P.aeruginosa ATCC27577 (Table II), read-out: MIC values
Method: (§1) An in vitro antibacterial activity was measured by an agar disc dilution method.
(§2) Varied test bacteria were cultivated overnight in triptophane-soybroth. A Mueller Hinton agar containing the compound of this invention in varied concentrations was streaked with one platinum loopful of each of the bacteria (number of living cells 10^6/ml).
(§3) MIC values of 10 kinds of Pseudomonas aeruginosa were measured for Compound III, Comparative Example B and CAZ.

[2] = system: P.aeruginosa N-26; assay: MIC values of 10 kinds of Pseudomonas aeruginosa; details: N26, 16 h, P.aeruginosa N-26 (Table II), read-out: MIC values
Method: as §1, §2, §3

[3] = system: P.aeruginosa NO. 97; assay: MIC values of 10 kinds of Pseudomonas aeruginosa; details: 16 h, P.aeruginosa NO. 97 (Table II), read-out: MIC values
Method: as §1, §2, §3

[4] = system: P.aeruginosa N-2; assay: MIC values of 10 kinds of Pseudomonas aeruginosa; details: N2, 16 h, P.aeruginosa N-2 (Table II), read-out: MIC values
Method: as §1, §2, §3

[5] = system: P.aeruginosa Tid53; assay: MIC values of 10 kinds of Pseudomonas aeruginosa; details: 16 h, P.aeruginosa Tid53 (Table II), read-out: MIC values
Method: as §1, §2, §3

[6] = system: P.aeruginosa N-3; assay: MIC values of 10 kinds of Pseudomonas aeruginosa; details: N3, 16 h, P.aeruginosa N-3 (Table II), read-out: MIC values
Method: as §1, §2, §3

[7] = system: P.aeruginosa ATCC27318; assay: MIC values of 10 kinds of Pseudomonas aeruginosa; details: 16 h, P.aeruginosa ATCC27318 (Table II), read-out: MIC values
Method: as §1, §2, §3

[8] = system: P.aeruginosa 0-11; assay: MIC values of 10 kinds of Pseudomonas aeruginosa; details: Pseudomonas aeruginosa, 011, 16 h; P.aeruginosa 0-11 (Table II); read-out: MIC values
Method: as §1, §2, §3

[9] = system: P.aeruginosa 88; assay: MIC values of 10 kinds of Pseudomonas aeruginosa; details: Pseudomonas aeruginosa, 16 h; P.aeruginosa 88 (Table II); read-out: MIC values
Method: as §1, §2, §3

[10] = system: P.aeruginosa 64; assay: MIC values of 10 kinds of Pseudomonas aeruginosa; details: Pseudomonas aeruginosa, 16 h; P.aeruginosa 64 (Table II); read-out: MIC values
Method: as §1, §2, §3

[11] = system: S.enteritidis G14; assay: In vitro antibacterial activity, agar disc dilution method; details: Salmonella enterica; S.enteritidis G14; Mueller Hinton agar, 10^6/ml, 37°C for 16 hours; read-out: minimum growth inhibitory concentration (MIC)
Method: as §1, §2

[12] = system: P.aeruginosa IFO3445; assay: as above; details: Pseudomonas aeruginosa; P.aeruginosa IFO3445; Mueller Hinton agar, 10^6/ml, 37°C for 16 hours; read-out: minimum growth inhibitory concentration (MIC)
Method: as §1, §2

[13] = system: P.vulgalis OX-11; assay: as above; details: P.vulgalis OX-11; Mueller Hinton agar, 10^6/ml, 37°C for 16 hours; read-out: minimum growth inhibitory concentration (MIC)
Method: as §1, §2

[14] = system: K.pneumoniae PCI602; assay: as above; details: Klebsiella pneumoniae; K.pneumoniae PCI602; Mueller Hinton agar, 10^6/ml, 37°C for 16 hours; read-out: minimum growth inhibitory concentration (MIC)
Method: as §1, §2

[15] = system: S.marcescens IAM1184; assay: as above; details: Serratia marcescens; S.marcescens IAM1184; Mueller Hinton agar, 10^6/ml, 37°C for 16 hours; read-out: minimum growth inhibitory concentration (MIC)
Method: as §1, §2

[16] = system: S.pyogenes Cook; assay: as above; details: Streptococcus pyogenes; S.pyogenes Cook; Mueller Hinton agar, 10^6/ml, 37°C for 16 hours; read-out: minimum growth inhibitory concentration (MIC)
Method: as §1, §2

[17] = system: S. aureus Terajima; assay: as above; details: Staphylococcus aureus; S. aureus Terajima; Mueller Hinton agar, 10^6/ml, 37°C for 16 hours; read-out: minimum growth inhibitory concentration (MIC)
Method: as §1, §2

[18] = system: M.luteus ATCC9341; assay: as above; details: Micrococcus luteus; M.luteus ATCC9341; Mueller Hinton agar, 10^6/ml, 37°C for 16 hours; read-out: minimum growth inhibitory concentration (MIC)
Method: as §1, §2

[19] = system: P.aeruginosa NCTC1049; assay: as above; details: Pseudomonas aeruginosa; P.aeruginosa NCTC1049; Mueller Hinton agar, 10^6/ml, 37°C for 16 hours; read-out: minimum growth inhibitory concentration (MIC)
Method: as §1, §2

[20] = system: P.aeruginosa PAD1; assay: as above; details: Pseudomonas aeruginosa; P.aeruginosa PAD1; Mueller Hinton agar, 10^6/ml, 37°C for 16 hours; read-out: minimum growth inhibitory concentration (MIC)
Method: as §1, §2

[21] = system: P.morganii IFO3445; assay: as above; details: Morganella morganii; P.morganii IFO3445; Mueller Hinton agar, 10^6/ml, 37°C for 16 hours; read-out: minimum growth inhibitory concentration (MIC)
Method: as §1, §2

[22] = system: S.aureus 209p NIHJ JC1; assay: as above; details: Staphylococcus aureus; S.aureus 209p NIHJ JC1; Mueller Hinton agar, 10^6/ml, 37°C for 16 hours; read-out: minimum growth inhibitory concentration (MIC)
Method: as §1, §2

[23] = system: S.typhi 901; assay: as above; details: Salmonella enterica, 16 h, read-out: minimum growth inhibitory concentration (MIC)
Method: as §1, §2

[24] = system: E.cloacae 963; assay: as above; details: Enterobacter cloacae; E.cloacae 963; Mueller Hinton agar, 10^6/ml, 37°C for 16 hours; read-out: minimum growth inhibitory concentration (MIC)
Method: as §1, §2

CC(C)(ON=C(C(=O)NC1C(=O)N2C(C(=O)[O-])=C(C[n+]3ccc4cc(O)c(O)cc4c3)CSC12)c1nsc(N)n1)C(=O)O [Compound III, (6R,7R)-7-[(Z)-2-(5-amino-1,2,4-thiadiazol-3-yl)-2-(2-carboxypropyl-2-yloxyimino)acetamide]-3-(6,7-dihydroxy-2-isoquinolinium)methyl-3-ce phem-4-carboxylate]
MIC [1]: 5 ng/mL (≈ 0.00794 µM)
MIC [2]: 12.5 ng/mL (≈ 0.0199 µM)
MIC [3]: 5 ng/mL (≈ 0.00794 µM)
MIC [4]: 25 ng/mL (≈ 0.0397 µM)
MIC [5]: 5 ng/mL (≈ 0.00794 µM)
MIC [6]: 12.5 ng/mL (≈ 0.0199 µM)
MIC [7]: 12.5 ng/mL (≈ 0.0199 µM)
MIC [8]: 5 ng/mL (≈ 0.00794 µM)
MIC [9]: 12.5 ng/mL (≈ 0.0199 µM)
MIC [10]: 12.5 ng/mL (≈ 0.0199 µM)
MIC [11]: 5 ng/mL (≈ 0.00794 µM)
MIC [12]: 12.5 ng/mL (≈ 0.0199 µM)
MIC [13]: 5 ng/mL (≈ 0.00794 µM)
MIC [14]: 5 ng/mL (≈ 0.00794 µM)
MIC [15]: 5 ng/mL (≈ 0.00794 µM)
MIC [16]: 1600 ng/mL (≈ 2.54 µM)
MIC [17]: 3100 ng/mL (≈ 4.92 µM)
MIC [18]: 3100 ng/mL (≈ 4.92 µM)
MIC [19]: 5 ng/mL (≈ 0.00794 µM)
MIC [20]: 12.5 ng/mL (≈ 0.0199 µM)
MIC [21]: 5 ng/mL (≈ 0.00794 µM)
MIC [22]: 12500 ng/mL (≈ 19.9 µM)
MIC [23]: 5 ng/mL (≈ 0.00794 µM)
MIC [24]: 5 ng/mL (≈ 0.00794 µM)
